Measured values published in PubChem BioAssay AID1963867 (Molecular Pharmacology Branch, DTP, NCI, 2024).

Tested on: KRAS-mutant PDC tumor spheroid with HUVEC/MSC, viability
Experiment: Anticancer human tumor 327498-153-R-J2-PDC patient-derived uterine carcinosarcoma cell line growth inhibition [KRAS2]
Details: for IC50: curve of first compound; for viability, T/C: stronger effect = lower value
Source text: Multicellular complex tumor spheroid response to RAS pathway inhibitors in combination with a targeted agents in patient-derived cell lines with oncogenic KRAS variants from multiple cancer types
A high-throughput screen of multi-cell type tumor spheroids was designed to identify active combinations of targeted small molecules and KRAS pathway inhibitors. Complex spheroids include a stromal component modeled by human endothelial cells (HUVEC) and fibroblasts modeled by human mesenchymal stem cells (MSCs). The concentration ranges selected for each drug and investigational agent were based upon clinically achievable concentrations if the clinical Cmax of the agent was known.
Compounds. The drugs and investigational agents: BI-3406 (NSC825286), BAY-293 (NSC824723), batoprotafib (TNO155; NSC825523), sotorasib (AMG 510; NSC818433), MRTX1257 (NSC819558), elimusertib (BAY 1895344; NSC800525), molibresib (GSK525762; NSC774829), temuterkib (LY3214996; NSC803410), venetoclax (NSC766270), alisertib (NSC759677), olaparib (NSC753686), talazoparib (NSC767125), erdafitinib (NSC781556), ipatasertib (NSC767898), cabozantinib (NSC761068), nintedanib (NSC756659), abemaciclib (NSC768073), docetaxel (NSC628503), trametinib (NSC758246), and sapanisertib (NSC764658) were obtained from the National Cancer Institute (NCI) Developmental Therapeutics Program Chemical Repository. The FDA-approved anticancer drug set is available from the Developmental Therapeutics Program. […] The stock solutions were prepared in dimethyl sulfoxide (DMSO, Sigma-Aldrich, St. Louis, MO, cat. D2650) at 800-fold the tested concentration and stored at -70 degrees C prior to their use. All drugs and investigational agents were tested over a range starting from a high concentration at or near the clinical Cmax and decreasing in half-log increments. If the clinical Cmax for an agent had not been determined, the highest concentration tested was 10 microM.
Cell Culture. All cells were maintained in an incubator at 37 degrees C and 5% CO2 with 95% humidity. The PDC lines were cultured according to standard operating procedures established by the NCI PDMR (https://pdmr.cancer.gov/sops/default.htm). Briefly, all PDCs were thawed and cultured in Matrigel-coated flasks prepared with a working solution of 1X Ham's F-12 nutrient mix, without supplementation (Invitrogen, Waltham, MA, cat. 11765054), 100 U/mL penicillin-streptomycin (Invitrogen, cat. 15140122), and 2.5% Matrigel (Corning Inc., Corning, NY, cat. 354248) for the first three passages. All PDCs were cultured in complete DMEM/F-12 media containing advanced DMEM/F-12 (Invitrogen, cat. 12634028), 4.9% defined fetal bovine serum, heat inactivated (HyClone Laboratories Inc., Logan, UT, cat. SH30070.03HI), 389 ng/mL hydrocortisone (Sigma-Aldrich, cat. H4001), 9.7 ng/mL human EGF recombinant protein (Invitrogen, cat. PHG0313), 23.4 microg/mL adenine (Sigma-Aldrich, cat. A2786), 97.3 U/mL penicillin-streptomycin (Invitrogen, cat. 15140122), 1.9 mM L-glutamine (Invitrogen, cat. 25030081), and 9.7 microM Y-27632 dihydrochloride (Tocris Bioscience, Bristol, United Kingdom, cat. 1254). The PDCs were cultured in complete DMEM/F12 media without 9.7 microM Y-27632 dihydrochloride for at least two passages prior to the screen. The established cell line HOP-62 was cultured in RPMI 1640 medium, HEPES (Invitrogen, cat. 22400105) with 10% defined fetal bovine serum (HyClone Laboratories Inc., cat. SH30070.03) and 2 mM L-glutamine (Invitrogen, cat. 25030081). The pooled donor HUVEC were cultured in endothelial cell growth medium 2 (PromoCell, Heidelberg, Germany, cat. C-22011) and the hMSC were cultured in mesenchymal stem cell growth medium 2 (PromoCell, cat. C-28009). For all experiments, HUVEC and hMSC were used at passages </=5, while the malignant cell lines were used at passages </=15. […]

[1] = second compound 0.0316 µM, first compound 0.0316 µM
[2] = second compound 0.1 µM, first compound 0.0316 µM
[3] = second compound 0.316 µM, first compound 0.0316 µM
[4] = second compound 1 µM, first compound 0.0316 µM
[5] = second compound 3.16 µM, first compound 0.0316 µM
[6] = second compound 0.1 µM, first compound 0.1 µM
[7] = second compound 0.1 µM, first compound 0.316 µM
[8] = second compound 0.1 µM, first compound 1 µM
[9] = second compound 0.1 µM, first compound 3.16 µM
[10] = second compound 0.1 µM, first compound 10 µM
[11] = second compound 1 µM, first compound 0.1 µM
[12] = second compound 1 µM, first compound 0.316 µM
[13] = second compound 1 µM, first compound 1 µM
[14] = second compound 1 µM, first compound 3.16 µM
[15] = second compound 1 µM, first compound 10 µM
[16] = second compound 3.16 µM, first compound 0.1 µM
[17] = second compound 3.16 µM, first compound 0.316 µM
[18] = second compound 3.16 µM, first compound 1 µM
[19] = second compound 3.16 µM, first compound 3.16 µM
[20] = second compound 3.16 µM, first compound 10 µM
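Also: spheroids exposed to agents for seven days before reading.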
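For viability, T/C in this document: 100% = DMSO vehicle wells so lower means fewer viable cells.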

For `CC(=O)Nc1cccc(-n2c(=O)n(C3CC3)c(=O)c3c(Nc4ccc(I)cc4F)n(C)c(=O)c(C)c32)c1` + C=CC(=O)N1CCN(c2nc(OCC3CCCN3C)nc3c2CCN(c2cccc4cccc(C)c24)C3)CC1CC#N, the IC50 (second compound 0.0316 µM) was 6.53 nM, the IC50 (second compound 0.1 µM) was 5.43 nM and the IC50 (second compound 0.316 µM) was 3.49 nM. The IC50 (second compound 1 µM) was 0.128 nM, the IC50 (second compound 3.16 µM) was under 0.1 nM and the viability, T/C (second compound 0.0316 µM, first compound 0.0001 µM) was 72.7%. The viability, T/C (second compound 0.0316 µM, first compound 0.000316 µM) was 64.8%, the viability, T/C (second compound 0.0316 µM, first compound 0.001 µM) was 57.4% and the viability, T/C (second compound 0.0316 µM, first compound 0.00316 µM) was 58%. The viability, T/C (second compound 0.0316 µM, first compound 0.01 µM) was 49.1%, the viability, T/C [1] was 31.4% and the viability, T/C (second compound 0.1 µM, first compound 0.0001 µM) was 67.1%. The viability, T/C (second compound 0.1 µM, first compound 0.000316 µM) was 68.3%, the viability, T/C (second compound 0.1 µM, first compound 0.001 µM) was 58.4% and the viability, T/C (second compound 0.1 µM, first compound 0.00316 µM) was 53%. It also gave a viability, T/C (second compound 0.1 µM, first compound 0.01 µM) of 47.8%, a viability, T/C [2] of 25.4% and a viability, T/C (second compound 0.316 µM, first compound 0.0001 µM) of 58.5%. It also gave a viability, T/C (second compound 0.316 µM, first compound 0.000316 µM) of 54.6%, a viability, T/C (second compound 0.316 µM, first compound 0.001 µM) of 55.7% and a viability, T/C (second compound 0.316 µM, first compound 0.00316 µM) of 48%. The viability, T/C (second compound 0.316 µM, first compound 0.01 µM) was 44.7%, the viability, T/C [3] was 25.5% and the viability, T/C (second compound 1 µM, first compound 0.0001 µM) was 48.5%. The viability, T/C (second compound 1 µM, first compound 0.000316 µM) was 52.4%, the viability, T/C (second compound 1 µM, first compound 0.001 µM) was 45.7% and the viability, T/C (second compound 1 µM, first compound 0.00316 µM) was 41.9%. For the same molecule, the viability, T/C (second compound 1 µM, first compound 0.01 µM) was 35.8%, the viability, T/C [4] was 22.1% and the viability, T/C (second compound 3.16 µM, first compound 0.0001 µM) was 0.75%. It also gave a viability, T/C (second compound 3.16 µM, first compound 0.000316 µM) of 0.19%, a viability, T/C (second compound 3.16 µM, first compound 0.001 µM) of 0.19% and a viability, T/C (second compound 3.16 µM, first compound 0.00316 µM) of 0.22%. For the same molecule, the viability, T/C (second compound 3.16 µM, first compound 0.01 µM) was 0.18% and the viability, T/C [5] was 0.31%.

Work on `COC(=O)c1ccc2c(C(=Nc3ccc(N(C)C(=O)CN4CCN(C)CC4)cc3)c3ccccc3)c(O)[nH]c2c1` + CNCc1ccccc1-c1csc(C(C)Nc2nc(C)nc3cc(OC)c(OC)cc23)c1 yielded an IC50 (second compound 0.1 µM) of 519 nM, an IC50 (second compound 0.316 µM) of 308 nM and an IC50 (second compound 1 µM) of 153 nM. The IC50 (second compound 3.16 µM) was under 31.6 nM, the IC50 (second compound 10 µM) was under 31.6 nM and the viability, T/C [2] was 73.5%. It also gave a viability, T/C [6] of 69.9%, a viability, T/C [7] of 58.6% and a viability, T/C [8] of 38.7%. For the same molecule, the viability, T/C [9] was 10.9%, the viability, T/C [10] was 8.59% and the viability, T/C [3] was 62.9%. For the same molecule, the viability, T/C (second compound 0.316 µM, first compound 0.1 µM) was 61.4%, the viability, T/C (second compound 0.316 µM, first compound 0.316 µM) was 48.8% and the viability, T/C (second compound 0.316 µM, first compound 1 µM) was 22.6%. It also gave a viability, T/C (second compound 0.316 µM, first compound 3.16 µM) of 0.98%, a viability, T/C (second compound 0.316 µM, first compound 10 µM) of 1.62% and a viability, T/C [4] of 60.9%. It also gave a viability, T/C [11] of 53%, a viability, T/C [12] of 41.5% and a viability, T/C [13] of 18.7%. For the same molecule, the viability, T/C [14] was 0.06%, the viability, T/C [15] was 0.11% and the viability, T/C [5] was 0.1%. The viability, T/C [16] was 0.13%, the viability, T/C [17] was 0.08% and the viability, T/C [18] was 0.15%. The viability, T/C [19] was 0.04%, the viability, T/C [20] was 0.11% and the viability, T/C (second compound 10 µM, first compound 0.0316 µM) was 0.43%. The viability, T/C (second compound 10 µM, first compound 0.1 µM) was 0.37%, the viability, T/C (second compound 10 µM, first compound 0.316 µM) was 0.36% and the viability, T/C (second compound 10 µM, first compound 1 µM) was 0.1%. It also gave a viability, T/C (second compound 10 µM, first compound 3.16 µM) of 1.07% and a viability, T/C (second compound 10 µM, first compound 10 µM) of 0.16%.

With `CCNC(=O)CC1N=C(c2ccc(Cl)cc2)c2cc(OC)ccc2-n2c(C)nnc21` (stereo not drawn) + C=CC(=O)N1CCN(c2nc(OCC3CCCN3C)nc3c2CCN(c2cccc4cccc(C)c24)C3)CC1CC#N the IC50 (second compound 0.0316 µM) was 657 nM, the IC50 (second compound 0.1 µM) was 218 nM and the IC50 (second compound 1 µM) was under 31.6 nM. It also gave an IC50 (second compound 3.16 µM) of under 31.6 nM, a viability, T/C [1] of 72.8% and a viability, T/C (second compound 0.0316 µM, first compound 0.1 µM) of 75.9%. The viability, T/C (second compound 0.0316 µM, first compound 0.316 µM) was 51.8%, the viability, T/C (second compound 0.0316 µM, first compound 1 µM) was 47.1% and the viability, T/C (second compound 0.0316 µM, first compound 3.16 µM) was 36.5%. It also gave a viability, T/C (second compound 0.0316 µM, first compound 10 µM) of 27%, a viability, T/C [2] of 55.9% and a viability, T/C [6] of 58.4%. The viability, T/C [7] was 46.2%, the viability, T/C [8] was 36.9% and the viability, T/C [9] was 31.9%. The viability, T/C [10] was 22.4%, the viability, T/C [4] was 48.8% and the viability, T/C [11] was 41.7%. The viability, T/C [12] was 36.4%, the viability, T/C [13] was 27.9% and the viability, T/C [14] was 25.1%. It also gave a viability, T/C [15] of 18.9%, a viability, T/C [5] of 1.66% and a viability, T/C [16] of 2.31%. For the same molecule, the viability, T/C [17] was 1.02%, the viability, T/C [18] was 0.22% and the viability, T/C [19] was 2.19%. The viability, T/C [20] was 0.39%.
